Reference: ChEMBL document CHEMBL5338816, “Discovery of Dimethyl Shikonin Oxime 5a, a Potent, Selective Bombesin Receptor Subtype-3 Agonist for the Treatment of Type 2 Diabetes Mellitus” (J Med Chem, 2023)
Activity calls are given as the source filed them. The calls are words filed in the database; no cut-off is given here.

Key:
[1] = target: T1, Bombesin receptor subtype-3 (Homo sapiens, UniProt P32247); assay: Agonist activity at human BB3 stably overexpressed in human NCI-H1299 cells assessed as increase in IP-1 accumulation incubated for 60 mins by HTRF assay; assay type: functional, cell-based
T1 sequence (P32247 whole entry): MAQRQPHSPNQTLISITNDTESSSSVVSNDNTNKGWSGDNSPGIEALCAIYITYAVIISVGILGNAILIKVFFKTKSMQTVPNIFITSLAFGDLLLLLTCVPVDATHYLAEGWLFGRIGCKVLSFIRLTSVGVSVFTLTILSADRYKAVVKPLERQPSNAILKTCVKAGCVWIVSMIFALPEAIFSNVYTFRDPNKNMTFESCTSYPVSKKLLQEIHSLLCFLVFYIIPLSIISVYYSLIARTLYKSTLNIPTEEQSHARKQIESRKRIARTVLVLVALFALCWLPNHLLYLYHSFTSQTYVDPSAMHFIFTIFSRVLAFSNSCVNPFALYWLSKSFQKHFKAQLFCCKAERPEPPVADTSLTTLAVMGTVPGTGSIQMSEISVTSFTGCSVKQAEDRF

[2] = target: T1, Bombesin receptor subtype-3; assay: Agonist activity at human BB3 stably overexpressed in human NCI-H1299 cells assessed as increase in intracellular calcium response and measured for 3 mins by FLIPR calcium 6 assay; assay type: functional, cell-based
[3] = target: T2, Bombesin receptor subtype-3 (Mus musculus, UniProt O54798); assay: Agonist activity at mouse BB3 stably overexpressed in human HEK cells assessed as increase in IP-1 accumulation incubated for 60 mins by HTRF assay; assay type: functional, cell-based
T2 sequence (O54798 whole entry): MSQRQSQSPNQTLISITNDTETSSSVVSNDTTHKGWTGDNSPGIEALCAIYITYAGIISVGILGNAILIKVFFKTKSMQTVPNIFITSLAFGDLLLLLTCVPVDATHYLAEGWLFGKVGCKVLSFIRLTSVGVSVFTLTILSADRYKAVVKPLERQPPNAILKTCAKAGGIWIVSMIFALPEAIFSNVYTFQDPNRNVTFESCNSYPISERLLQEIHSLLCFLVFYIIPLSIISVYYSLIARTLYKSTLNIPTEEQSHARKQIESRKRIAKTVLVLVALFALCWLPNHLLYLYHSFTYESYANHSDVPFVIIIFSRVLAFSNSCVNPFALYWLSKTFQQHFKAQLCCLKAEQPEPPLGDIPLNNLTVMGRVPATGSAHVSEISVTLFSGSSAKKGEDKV

[4] = target: T2, Bombesin receptor subtype-3; assay: Agonist activity at mouse BB3 stably overexpressed in human HEK cells assessed as increase in intracellular calcium response and measured for 3 mins by FLIPR calcium 6 assay; assay type: functional, cell-based
Neuromedin-B receptor [5] = target: T3, Neuromedin-B receptor (Homo sapiens, UniProt P28336); assay: Agonist activity at human BB1 in human HEK293T cells assessed as increase in intracellular calcium response at 10 uM and measured for 3 mins by FLIPR calcium 6 assay; assay type: functional, cell-based
Target sequence in this assay (P28336 whole entry, looked up): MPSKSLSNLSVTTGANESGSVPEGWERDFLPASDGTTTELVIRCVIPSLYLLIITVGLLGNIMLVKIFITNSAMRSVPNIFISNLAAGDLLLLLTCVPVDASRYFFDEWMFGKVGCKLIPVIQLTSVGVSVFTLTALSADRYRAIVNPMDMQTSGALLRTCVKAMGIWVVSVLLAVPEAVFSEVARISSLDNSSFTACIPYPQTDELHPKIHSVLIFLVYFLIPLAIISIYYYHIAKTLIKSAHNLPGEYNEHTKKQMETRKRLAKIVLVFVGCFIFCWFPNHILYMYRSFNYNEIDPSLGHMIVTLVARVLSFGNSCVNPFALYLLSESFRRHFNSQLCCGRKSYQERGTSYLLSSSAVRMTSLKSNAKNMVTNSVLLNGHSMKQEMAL

HEK293T = assay: Agonist activity at human BB3 in human HEK293T cells assessed as increase in intracellular calcium response at 10 uM and measured for 3 mins by FLIPR calcium 6 assay; assay type: cell-based
[6] = target: T2, Bombesin receptor subtype-3; assay: Agonist activity at endogenous mouse BB3 in mouse B16 cells assessed as increase in IP-1 accumulation incubated for 60 mins by HTRF assay; assay type: functional, cell-based
Mus musculus [7] = assay: Antidiabetic activity in five hrs fasted wild type C57BL/6 mouse assessed as reduction in blood glucose level at 3 to 30 mg/kg,po pretreated with compound for 30 mins and followed by […] and measured upto 120 mins by OGTT; assay type: functional, organism-based; conditions: dose upper 30.0 mg/kg, time 150.0 min
Mus musculus [8] = assay: Antidiabetic activity in five hrs fasted BB3 knockout C57BL/6 mouse assessed as reduction in blood glucose level at 30 mg/kg,po pretreated with compound for 30 mins and followed by […] and measured upto 120 mins by OGTT; assay type: functional, organism-based; conditions: time 150.0 min
[9] = Dissociation constant, pKa of the compound; assay type: physicochemical
[10] = Drug concentration in […] mouse cerebrospinal fluid at 50 mg/kg,po and measured upto 480 mins by LC-MS/MS analysis; assay type: ADME, organism-based; conditions: read-out: Ct
Mus musculus [11] = assay: Antidiabetic activity in fourteen hour fasted type 2 diabetic db/db mouse assessed as reduction of blood glucose excursion at 10 mg/kg,po for 2 weeks followed by […] and measured upto 120 mins by OGTT; assay type: functional, organism-based
Mus musculus [12] = assay: Antidiabetic activity in fourteen hour fasted type 2 diabetic db/db mouse assessed as decrease in fasting blood glucose level at 10 mg/kg,po for 4 weeks by Glucose analyzer; assay type: functional, organism-based
Mus musculus [13] = assay: Antidiabetic activity in fourteen hour fasted type 2 diabetic db/db mouse assessed as decrease in glycosylated serum protein at 10 mg/kg,po for 4 weeks; assay type: functional, organism-based
Mus musculus [14] = assay: Antidiabetic activity in fourteen hour fasted type 2 diabetic db/db mouse assessed as decrease in HOMA-IR level at 10 mg/kg,po for 4 weeks; assay type: functional, organism-based
Mus musculus [15] = assay: Antidiabetic activity in fourteen hour fasted type 2 diabetic db/db mouse assessed as decrease in ALT level at 10 mg/kg,po for 4 weeks by BS-360S analyzer; assay type: functional, organism-based
Mus musculus [16] = assay: Antidiabetic activity in fourteen hour fasted type 2 diabetic db/db mouse assessed as decrease in gamma-GT level at 10 mg/kg,po for 4 weeks by BS-360S analyzer; assay type: functional, organism-based
[17] = target: T1, Bombesin receptor subtype-3; assay: Agonist activity at human BB3 transiently expressed in human HEK293T cells assessed as increase in IP-1 accumulation incubated for 60 mins by HTRF assay
[18] = target: T4, Bombesin receptor subtype-3 (Rattus norvegicus, UniProt Q8K418); assay: Agonist activity at rat BB3 transiently expressed in human HEK293T cells assessed as increase in IP-1 accumulation incubated for 60 mins by HTRF assay; assay type: functional, cell-based
T4 sequence (Q8K418 whole entry): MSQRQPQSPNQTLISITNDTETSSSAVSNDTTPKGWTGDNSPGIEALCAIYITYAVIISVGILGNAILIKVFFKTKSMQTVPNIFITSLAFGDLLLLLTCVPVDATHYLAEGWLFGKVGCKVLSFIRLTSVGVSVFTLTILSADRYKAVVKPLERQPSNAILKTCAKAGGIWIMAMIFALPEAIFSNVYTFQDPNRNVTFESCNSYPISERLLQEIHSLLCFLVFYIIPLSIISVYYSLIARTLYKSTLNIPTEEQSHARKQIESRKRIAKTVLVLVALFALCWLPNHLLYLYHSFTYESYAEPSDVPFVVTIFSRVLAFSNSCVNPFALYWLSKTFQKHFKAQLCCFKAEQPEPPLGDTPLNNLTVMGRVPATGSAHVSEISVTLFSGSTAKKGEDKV

Mus musculus [19] = assay: Antidiabetic activity in fourteen hour fasted type 2 diabetic db/db mouse assessed as increase in PPRE expression in white adipose tissue at 10 mg/kg, po for 4 weeks by Western blot analysis; assay type: functional, organism-based
Neuromedin-B receptor [20] = target: T3, Neuromedin-B receptor; assay: Agonist activity at human BB1 in human HEK293T cells assessed as increase in intracellular calcium response and measured for 3 mins by FLIPR calcium 6 assay; assay type: functional, cell-based
Target sequence in this assay (P28336 whole entry): as the sequence (P28336 whole entry, looked up) above

[21] = Agonist activity at human BB3 in human HEK293T cells assessed as increase in intracellular calcium response and measured for 3 mins by FLIPR calcium 6 assay; assay type: cell-based; conditions: HEK-293T, 0.05 h

C=CC(C)(C)C(OC(=O)c1ccccn1)c1cc(OC)c2c(c1OC)/C(=N/O)C=C/C2=N\O (centres undefined)
EC50 [1]: 14.7 nM

C=CC(C)(C)C(OC(=O)c1ccncc1)c1cc(OC)c2c(c1OC)/C(=N/O)C=C/C2=N\O (centres undefined)
EC50 [1]: 277 nM

C=CC(C)(C)C(OC(=O)c1ccc(C)cc1)c1cc(OC)c2c(c1OC)/C(=N/O)C=C/C2=N\O (centres undefined)
EC50 [1]: 81.7 nM

COc1cc(C(CC=C(C)C)OCCC(C)C)c(OC)c2c1/C(=N/OC(=O)c1ccccc1)C=C/C2=N\OC(=O)c1ccccc1 (centres undefined)
EC50 [1]: > 10000 nM

C=CC(C)(C)C(OCCCCCO)c1cc(OC)c2c(c1OC)/C(=N/O)C=C/C2=N\O (centres undefined)
EC50 [1]: 776 nM

C=CC(C)(C)C(OCCCCO)c1cc(OC)c2c(c1OC)/C(=N/O)C=C/C2=N\O (centres undefined)
EC50 [1]: 226 nM

COc1cc(C(CC=C(C)C)OCCC(C)C)c(OC)c2c1/C(=N/O)C=C/C2=N\O (centres undefined)
EC50 [1]: 520 nM

C=CC(C)(C)C(OC(=O)c1ccccc1)c1cc(OC)c2c(c1OC)/C(=N/O)C=C/C2=N\O (centres undefined)
EC50 [1]: 4.79 nM

COc1cc(C(O)CC=C(C)C)c(OC)c2c1/C(=N/O)C=C/C2=N\O (centres undefined)
EC50 [1]: 3400 nM | EC50 [2]: 2380 nM | EC50 [3]: 624 nM | EC50 [4]: 780 nM

C=CC(C)(C)C(OC(=O)c1ccc(C=O)cc1)c1cc(OC)c2c(c1OC)/C(=N/O)C=C/C2=N\O (centres undefined)
EC50 [1]: 311 nM

C=CC(C)(C)C(OC(=O)C1CCCO1)c1cc(OC)c2c(c1OC)/C(=N/O)C=C/C2=N\O (centres undefined)
EC50 [1]: 135 nM

C=CC(C)(C)C(OC(=O)c1ccco1)c1cc(OC)c2c(c1OC)/C(=N/O)C=C/C2=N\O (centres undefined)
EC50 [1]: 3.78 nM | EC50 [2]: 10.9 nM | EC50 [3]: 54.7 nM | EC50 [4]: 67 nM | Activity (Neuromedin-B receptor [5]): inactive | Activity (HEK293T): inactive | EC50 [6]: 0.44 nM | Activity (Mus musculus [7]): Dose-Dependent Effect | Activity (Mus musculus [8]): inactive | pKa [9]: > 10.2 | concentration at 8 h [10]: < 0.05 ng/mL | Activity (Mus musculus [11]): Active | Activity (Mus musculus [12]): Active | Activity (Mus musculus [13]): Active | Activity (Mus musculus [14]): Active | Activity (Mus musculus [15]): Active | Activity (Mus musculus [16]): Active | EC50 [17]: 149 nM | EC50 [18]: 6.11 nM | Activity (Mus musculus [19]): Active

C=CC(C)(C)C(OC(=O)CC(C)C)c1cc(OC)c2c(c1OC)/C(=N/O)C=C/C2=N\O (centres undefined)
EC50 [1]: 52.5 nM

C=CC(C)(C)C(OC(C)=O)c1cc(OC)c2c(c1OC)/C(=N/O)C=C/C2=N\O (centres undefined)
EC50 [1]: > 1000 nM

C=CC(C)(C)C(O)c1cc(OC)c2c(c1OC)/C(=N/O)C=C/C2=N\O (centres undefined)
EC50 [1]: > 10000 nM

C=CC(C)(C)C(OC(=O)c1cccnc1Br)c1cc(OC)c2c(c1OC)/C(=N/O)C=C/C2=N\O (centres undefined)
EC50 [1]: 101 nM

C=CC(C)(C)C(OC(=O)c1cccnc1)c1cc(OC)c2c(c1OC)/C(=N/O)C=C/C2=N\O (centres undefined)
EC50 [1]: 15.7 nM

COc1cc(C(CC=C(C)C)OC(=O)CC(C)C)c(OC)c2c1/C(=N/O)C=C/C2=N\O (centres undefined)
EC50 [1]: 822 nM

C=CC(C)(C)C(OCCCO)c1cc(OC)c2c(c1OC)/C(=N/O)C=C/C2=N\O (centres undefined)
EC50 [1]: > 10000 nM

CCCC[C@H](NC(=O)[C@H](Cc1ccccc1)NC(=O)[C@H](Cc1c[nH]cn1)NC(=O)CNC(=O)[C@@H](NC(=O)[C@H](C)NC(=O)[C@H](Cc1c[nH]c2ccccc12)NC(=O)[C@H](CCC(N)=O)NC(=O)[C@H](N)Cc1ccccc1)C(C)C)C(N)=O
EC50 (Neuromedin-B receptor [20]): 0.155 nM | EC50 [21]: 0.405 nM

C=CC(C)(C)C(OC(=O)c1cncc(F)c1)c1cc(OC)c2c(c1OC)/C(=N/O)C=C/C2=N\O (centres undefined)
EC50 [1]: 60 nM

O[C@@](Cc1nc(CC2(C(F)(F)F)CC2)c[nH]1)(c1ccc(-n2cccn2)cc1)C(F)(F)F
EC50 [1]: 0.211 nM | EC50 [2]: 0.293 nM | EC50 [3]: 0.421 nM | EC50 [4]: 2.99 nM | EC50 [6]: 13.5 nM
